In ChEMBL document CHEMBL1145432, “Antitumor activity, X-ray crystal structure, and DNA binding properties of thiocoraline A, a natural bisintercalating thiodepsipeptide” (2007):
Bridge positions count the residues as written; N and C are the ends. Square brackets hold non-standard residues; d marks the D form. Peptide text beside a SMILES is read from it. I, II: the chains in the order shown. * marks the point of attachment. Quinaldoyl(3-OH) = O=C(c1nc2ccccc2cc1O)*; NMeC = CN[C@@H](CS)C(=O)O

Assays:
Format in all cases: functional
[1] = Cytotoxicity against human IGROV cells after 72 hrs by SRB assay
DU-145 = assay: Cytotoxicity against human DU145 cells after 72 hrs by SRB assay; details: DU-145, 72 h
SK-MEL-28 = assay: Cytotoxicity against human SK-MEL-28 cells after 72 hrs by SRB assay; details: SK-MEL-28, 72 h
HT-29 = assay: Cytotoxicity against human HT29 cells after 72 hrs by SRB assay; details: HT-29, 72 h
PANC-1 = assay: Cytotoxicity against human PANC1 cells after 72 hrs by SRB assay; details: PANC-1, 72 h
HeLa = assay: Cytotoxicity against human HeLa cells after 72 hrs by SRB assay
K562 = assay: Cytotoxicity against human K562 cells after 72 hrs by SRB assay; details: K562, 72 h
LoVo [2] = assay: Cytotoxicity against doxorubicin resistant human LoVo cells after 72 hrs by SRB assay
A549 = assay: Cytotoxicity against human A549 cells after 72 hrs by SRB assay; details: A549, 72 h
SK-BR-3 = assay: Cytotoxicity against human SK-BR3 cells after 72 hrs by SRB assay; details: SK-BR-3, 72 h
LoVo [3] = assay: Cytotoxicity against human LoVo cells after 72 hrs by SRB assay
LNCaP = assay: Cytotoxicity against human LNCaP cells after 72 hrs by SRB assay
[4] = read-out: LC50 (the source's name)

## CSC[C@H]1C(=O)SC[C@@H](NC(=O)c2nc3ccccc3cc2O)C(=O)NCC(=O)N(C)[C@H]2CSSC[C@@H](C(=O)N1C)N(C)C(=O)CNC(=O)[C@H](NC(=O)c1nc3ccccc3cc1O)CSC(=O)[C@H](CSC)N(C)C2=O [THIOCORALINE A] (I: {Quinaldoyl(3-OH)}-[dC]G[NMeC][NMeC](Me) / II: {Quinaldoyl(3-OH)}-[dC]G[NMeC][NMeC](Me); thioester I:1-II:C, I:C-II:1; disulfide I:3-II:3)
[1]
  GI50: 1.9 nM
  TGI: 11.1 nM
[1]; [4]
  CC50: 1260 nM
DU-145
  GI50: 1.9 nM
  TGI: 6.4 nM
DU-145; [4]
  CC50: 1480 nM
SK-MEL-28
  GI50: 3 nM
  TGI: 14 nM
SK-MEL-28; [4]
  CC50: 50.3 nM
HT-29
  GI50: 3.9 nM
  TGI: 73.6 nM
HT-29; [4]
  CC50: 6290 nM
PANC-1
  GI50: 2.5 nM
  TGI: 82.5 nM
PANC-1; [4]
  CC50: 378 nM
HeLa
  GI50: 1.3 nM
  TGI: 4.7 nM
HeLa; [4]
  CC50: 22.6 nM
K562
  GI50: 1.3 nM
  TGI: 4.6 nM
K562; [4]
  CC50: 9.2 nM
LoVo [2]
  GI50: 212 nM
  TGI: 2380 nM
A549
  GI50: 4.8 nM
  TGI: 19.3 nM
A549; [4]
  CC50: 95.6 nM
SK-BR-3
  GI50: 2.2 nM
  TGI: 8.9 nM
SK-BR-3; [4]
  CC50: 30.8 nM
LoVo [3]
  GI50: 7.2 nM
  TGI: 263 nM
LoVo [3]; [4]
  CC50: 284 nM
LNCaP
  GI50: 3 nM
  TGI: 5 nM
LNCaP; [4]
  CC50: 14.2 nM
